Counter-ions that a name gives are not always drawn.
Columns and labels:
[1] = test system: lipid peroxidation; test: Chronic treatment 3-months, LPO levels (modified FOX assay); assay type: in vivo, C57Bl6 female mice; details: mice, 0.5, 1 or 3 mg/kg in drinking water, hippocampi
Text: (§1) Neuropathological disorders are also characterized by abnormal phosphorylation of Tau protein (AT100). Hyperphosphorylation of the tau protein (on specific sites) can result in the intracellular accumulation of neurofibrillary tangles (NFTs), involved in the pathogenesis of Alzheimer's disease and other tauopathies. One axis of the study was thus to study the effect of the sulphate salt of example 2 on this abnormal phosphorylation. In parallel, such effect was also monitored with regards to the non-pathological phosphorylation of Tau protein (AT8) which should remain unaffected. Another axis of this study was thus the impact of the sulphate salt of example 2 on oxidative stress (OS). Therefore, levels of lipidic peroxidation, a well known marker for the evaluation of oxidative stress, were determined. […]
4-month old C57Bl6 female mice were provided with 0.5, 1 or 3 mg/kg of compound of example 2 dissolved in their drinking water. […] Volume consumed was calculated by weighing each bottle after each week and the remaining volume was discarded.
LPO levels measurements: the level of lipid peroxidation in hippocampi is determined as cumene hydroperoxide (CHP) equivalents and expressed as CHP equivalents per wet weight of tissue and as percentage of control group data following the modified FOX assay.

[2] = water solubility; assay type: physicochemical
[3] = test system: SH-5Y5Y cell line; test: cytotoxicity CC50; assay type: cell-based, human; details: concentration at which 50% of plated cells remain alive
Protocol: In addition, it is remarked that no cytotoxicity was found for this sulphate salt, its CC50 on SH-5Y5Y cell line was found greater than 30 μM. CC50 is defined herein as the concentration at which 50% of plated cells remain alive.

[4] = test system: APP metabolism in SH-5Y5Y cells (human neuroblastoma cell line overexpressing wild type human APP); test: In vitro APP metabolism assay; assay type: cell-based; details: 0.3, 1, 3 and 10 μM, 24 h
Protocol: In Vitro APP Metabolism Assay
This assay was performed using SH-5Y5Y cells (human neuroblastoma cell line overexpressing wild type human APP) which were treated for 24 h with the sulphate salt of example 2. This test was carried out at four different compound concentrations of 0.3, 1, 3 and 10 μM. Quantification of different metabolites was achieved by western-blot analysis. CTFa, CTFβ and AICD were analysed using anti-actin ((I-19) (SC-1616 Santa Cruz Biotechnology; 1:1000 from 200 μg/ml stock) as an internal control and anti-C term APP antibody (1:250000 in washing buffer). Protein concentrations were determined by the BCA Protein Assay Kit (Thermo Scientific). Samples (20 μg total protein) were separated by 16% SDS-PAGE according to the molecular weight of each protein, and transferred to nitrocellulose membranes.

[5] = test system: APP metabolism; test: In vivo APP metabolism assay, acute treatment 24 h p.o.; set-up: species or system C57Bl6 female mice
Protocol: In Vivo APP Metabolism Assay
(§2) In vivo experiments were carried out on 4-month old C57Bl6 female mice or 2-month old Sprague Dawley rats.
Acute treatment: 24 h p.o.
C57Bl6 female mice were treated per os (gavage) with vehicle or compound (example 2) at 0.25, 0.5, 1, 3 and 6 mg/kg mg/kg (n=6 per group) for 24 h. The product was administered with a disposable Rodent Feeding Tube ECIMED Ref # V0104030 (4 mm×30 mm). The animals were sacrificed after 24 h, the brain was immediately removed for dissection. Levels of CTFα in the frontal cortex (FC) and/or the hippocampus (HIP) were measured by western-blot analysis as previously described. Briefly, tissues were homogenized with […], of lysis buffer (10 mL of Laemmli Pre-Lysis Buffer and 1 tablet of Protease Inhibitor cocktail Complete Mini (Roche)) in a potter. After sonication (5 min), homogenates were centrifuged at 1600 rpm 5 min 4° C. Supernatants were aliquoted and stored at −80° C. before western blot analysis.

[6] = test system: APP metabolism; test: In vivo APP metabolism assay, chronic treatment 1-month; set-up: species or system Sprague Dawley rats; details: rats, 1 or 10 mg/kg/day in drinking water, one month
Protocol: as §2
Chronic Treatment: 1-Month
Rats were provided for one month with 1 or 10 mg/kg/day of the compound of example 2 dissolved in their drinking water. […] The animals were sacrificed after one month and levels of CTFα and CTFβ in the frontal cortex (FC) and/or the hippocampus (HIP) were measured by western-blot analysis as previously described. Dose dependent results are shown on FIGS. 22-a and 22-b. […] The frontal cortex is generally the first region of the brain to be affected by amyloid plaques formation in abnormal APP metabolism related diseases while the hippocampus, which is highly involved in memory and recollection processes, is latterly but severely affected. The sulphate salt of example 2 thus has very positive effect on APP metabolism in both the frontal cortex and the hippocampus and could is therefore of interest in the treatment of neurodegenerative diseases, in particular for both early and advanced stages of abnormal APP metabolism related diseases.

[7] = test system: Tau protein; test: Chronic treatment 3-months, Tau protein phosphorylation; assay type: in vivo, C57Bl6 female mice; details: mice, 0.5, 1 or 3 mg/kg in drinking water, brain tissues
Text: Chronic Treatment: 3-Months
as §1, with “determined. Indeed, oxidative stress (OS), by the generation of toxic reactive oxygen species (ROS) and oxidative damage (oxidation of vital cellular components as lipids, proteins and DNA), is believed to be involved in the pathogenesis of neurodegenerative disorders.” for “determined.”
4-month old C57Bl6 female mice were provided with 0.5, 1 or 3 mg/kg of compound of example 2 dissolved in their drinking water. […] Volume consumed was calculated by weighing each bottle after each week and the remaining volume was discarded. […]

[8] = salt formation results (physical form); assay type: physicochemical; details: Acid eq. added 0
Protocol: The hydrochloride, hydrobromide, acetate, tartrate, fumarate, malate, oxalate and sulphate salts of N-(3-(4-(3-(diisobutylamino)propyl)piperazin-1-yl)propyl)-1H-benzo[d]imidazol-2-amine were prepared according to procedures similar to those described in the previous examples or standard salt formation methods well known in the art.

[9] = long term stability (oxidation) in solid state; assay type: physicochemical; details: oxidation at the piperazine ring

| SMILES | LPO levels [1] | water solubility [2] | CC50 [3] | Aβ1-42 levels [4] | sAPPα levels [4] | AICD levels ([4]; western-blot) | CTFα levels ([4]; western-blot) | CTFα levels in the frontal cortex, comparison to the oxalate salt of WO2006/051489 ([5]; mice, 6 mg/kg per os) | CTFα levels in the frontal cortex ([5]; mice, 0.25, 0.5, 1, 3 and 6 mg/kg per os) | CTFα levels in the frontal cortex [6] | CTFβ levels in the hippocampus [6] | AT8 levels (normal Tau protein phosphorylation) [7] | AT100 levels (pathological Tau protein phosphorylation) [7] | Physical form [8] | long term stability [9] |
| --- | --- | --- | --- | --- | --- | --- | --- | --- | --- | --- | --- | --- | --- | --- | --- |
| CC(C)CN(CCCN1CCN(CCCNc2nc3ccccc3[nH]2)CC1)CC(C)C [Example 2, N-(3-(4-(3-(diisobutylamino)propyl)piperazin-1-yl)propyl)-1H-benzo[d]imidazol-2-amine, 1.8 eq sulphate salt] | significant decrease | remarkable high solubility | > 30 µM | decreased level | dose dependent increased levels | dose dependent increased levels | dose dependent increased levels | superior efficiency | increasing concentrations | increasing concentrations | decreasing concentrations | not affecting | decreases | – | – |
| CC(C)CN(CCCN1CCN(CCCNc2nc3ccccc3[nH]2)CC1)CC(C)C [Free base, N-(3-(4-(3-(diisobutylamino)propyl)piperazin-1-yl)propyl)-1H-benzo[d]imidazol-2-amine] | – | – | – | – | – | – | – | – | – | – | – | – | – | Amorphous powder | long term stability issues |
